In ChEMBL document CHEMBL5365402, “Phytochemical investigation of Asarum sieboldii var. seoulense and the phenotypic profiles of its constituents against a Parkinson's Disease olfactory cell line” (Bioorg Med Chem Lett, 2023):
Calls of active or inactive are those of the source. The rule behind the calls is not given here.

Tests used:
Assay type in all cases: functional, subcellular
[1] = system: ONS; experiment: Anti-parkinson's disease activity in human ONS cells assessed as alpha-tubulin marker intensity in inner region of cytoplasm at 5 uM by heat map analysis
[2] = system: ONS; experiment: Anti-parkinson's disease activity in human ONS cells assessed as alpha-tubulin marker intensity in outer region of cytoplasm at 5 uM by heat map analysis
[3] = system: ONS; experiment: Anti-parkinson's disease activity in human ONS cells assessed as lysosome marker intensity in outer region of cytoplasm at 5 uM by heat map analysis
[4] = system: ONS; experiment: Anti-parkinson's disease activity in human ONS cells assessed as early endosome marker intensity in outer region of cytoplasm at 5 uM by heat map analysis
[5] = system: ONS; experiment: Anti-parkinson's disease activity in human ONS cells assessed as lysosome marker intensity in inner region of cytoplasm at 5 uM by heat map analysis
[6] = system: ONS; experiment: Anti-parkinson's disease activity in human ONS cells assessed as alpha-tubulin marker intensity in cytoplasm at 5 uM by heat map analysis
[7] = system: ONS; experiment: Anti-parkinson's disease activity in human ONS cells assessed as early endosome marker intensity in inner region of cytoplasm at 5 uM by heat map analysis
[8] = system: ONS; experiment: Anti-parkinson's disease activity in human ONS cells assessed as early endosome marker intensity in cytoplasm at 5 uM by heat map analysis
[9] = system: ONS; experiment: Anti-parkinson's disease activity in human ONS cells assessed as lysosome marker intensity in cytoplasm at 5 uM by heat map analysis
[10] = system: ONS; experiment: Anti-parkinson's disease activity in human ONS cells assessed as negative mitochondrial marker intensity in cytoplasm at 5 uM by heat map analysis
[11] = system: ONS; experiment: Anti-parkinson's disease activity in human ONS cells assessed as negative mitochondrial marker intensity in outer region of cytoplasm at 5 uM by heat map analysis
[12] = system: ONS; experiment: Anti-parkinson's disease activity in human ONS cells assessed as negative mitochondrial marker intensity in inner region of cytoplasm at 5 uM by heat map analysis
[13] = system: ONS; experiment: Anti-parkinson's disease activity in human ONS cells assessed as LC3B marker intensity in cytoplasm at 5 uM by heat map analysis
[14] = system: ONS; experiment: Anti-parkinson's disease activity in human ONS cells assessed as LC3B marker intensity in outer region of cytoplasm at 5 uM by heat map analysis
[15] = system: ONS; experiment: Anti-parkinson's disease activity in human ONS cells assessed as LC3B marker intensity in inner region of cytoplasm at 5 uM by heat map analysis

Compound | Activity [1] | Activity [2] | Activity [3] | Activity [4] | Activity [5] | Activity [6] | Activity [7] | Activity [8] | Activity [9] | Activity [10] | Activity [11] | Activity [12] | Activity [13] | Activity [14] | Activity [15]
C=CCc1cc2c(cc1OC)OCO2 | Active | Active | Active | Active | Active | Active | Active | Active | Active | – | – | – | – | – | –
CCC(=O)c1cc(OC)c(O)cc1O | Active | Active | Active | Active | Active | Active | Active | Active | Active | – | – | – | – | – | –
CCC(=O)c1cc2c(cc1O)OCO2 | – | – | inactive | inactive | inactive | – | inactive | inactive | inactive | inactive | inactive | inactive | – | – | –
CCC(=O)c1ccc2c(c1)OCO2 | Active | Active | Active | Active | Active | Active | Active | Active | Active | – | – | – | – | – | –
C/C=C\C=C/CC/C=C/C=C/C(=O)NCC(C)C | Active | Active | Active | Active | Active | Active | Active | Active | Active | – | – | – | – | – | –
c1cc2c(cc1[C@H]1OC[C@H]3[C@@H]1CO[C@H]3c1ccc3c(c1)OCO3)OCO2 | Active | Active | Active | Active | Active | Active | Active | Active | Active | – | – | – | – | – | –
COc1cc(/C=C/C(=O)O)ccc1O | Active | Active | Active | Active | Active | Active | Active | Active | Active | – | – | – | – | – | –
C=CCc1cc(OC)c(OC)c(OC)c1 | Active | Active | Active | Active | Active | Active | Active | Active | Active | – | – | – | – | – | –
CCC(=O)c1cc2c(cc1OC)OCO2 | – | – | inactive | inactive | inactive | – | inactive | inactive | inactive | inactive | inactive | inactive | – | – | –
O=C(O)/C=C/c1ccc(O)cc1 | – | – | inactive | inactive | inactive | – | inactive | inactive | inactive | inactive | inactive | inactive | – | – | –
C/C=C/C=C\CC/C=C/C=C/C(=O)NCC(C)C | – | – | – | – | – | – | – | – | – | Active | Active | Active | Active | Active | Active
O=C(O)c1ccc(O)cc1 | Active | Active | Active | Active | Active | Active | Active | Active | Active | – | – | – | – | – | –
COc1cc([C@H]2OC[C@H]3[C@@H]2CO[C@@H]3c2ccc3c(c2)OCO3)ccc1O | – | – | – | – | – | – | – | – | – | Active | Active | Active | Active | Active | Active
COc1cc(C(=O)O)ccc1O | Active | Active | Active | Active | Active | Active | Active | Active | Active | – | – | – | – | – | –
C/C=C/C=C/CC/C=C/C=C/C(=O)NCC(C)C | – | – | – | – | – | – | – | – | – | Active | Active | Active | Active | Active | Active
c1cc2c(cc1[C@H]1OC[C@H]3[C@@H]1CO[C@@H]3c1ccc3c(c1)OCO3)OCO2 | – | – | inactive | inactive | inactive | – | inactive | inactive | inactive | inactive | inactive | inactive | – | – | –
COc1cc([C@H]2OC[C@H]3[C@@H]2CO[C@H]3c2ccc3c(c2)OCO3)ccc1O | – | – | inactive | inactive | inactive | – | inactive | inactive | inactive | inactive | inactive | inactive | – | – | –
C=CCc1cc(OC)c(O)c(OC)c1 | Active | Active | Active | Active | Active | Active | Active | Active | Active | – | – | – | – | – | –
C/C=C\CC/C=C/C=C/C(=O)NCC(C)C | Active | Active | Active | Active | Active | Active | Active | Active | Active | – | – | – | – | – | –
